System: differentiated culture of primary bronchial human cells
Experiment: Barrier disruption at the air-liquid interface: epithelial barrier resistance Rc by impedance spectroscopy before and after EGTA stimulation
Type: cell-based
Settings: paired t-test
Description: Impedance spectra were measured before and after EGTA stimulation either submerged or at the air-liquid interface. The extrapolated values of the equivalent resistance Rc were compared with TER values.
FIG. 17 is a bar chart of fitted resistance values, Rc, showing the disruption induced by the EGTA stimulation.
Electrical impedance spectroscopy (EIS) measurements were performed using the two electrodes configuration of an Alpha-A impedance analyser (Novocontrol Technologies, Germany). A frequency sweep was performed between 100 Hz and 100 kHz, with an applied voltage of 0.05 V(rms). Prior to the EIS measurement, the medium in the apical compartment was replaced with different volumes (200 μl, 50 μl, 20 μl, 10 μl) of fresh medium at room-temperature. Each Transwell® support was placed on top of the planar electrodes only for the duration of the measurement (≈30 s). Trans-epithelial electrical resistance (TER) measurements were performed using chopstick electrodes connected to an EVOM2 Epithelial Volt-ohm-meter (World Precision Instruments).
A custom script was developed in Matlab (© 2015 The MathWorks) to fit the complex electrical impedance data with the equivalent electric circuit model. The objective function to be minimized during the fitting was defined as: […]
The absolute value of the impedance was used as the normalizing factor. […]

## O=C(O)CN(CCOCCOCCN(CC(=O)O)CC(=O)O)CC(=O)O [EGTA, ethylene glycol-bis(β-aminoethyl ether)-N,N,N′,N′-tetraacetic acid]
air-liquid interface measurement
  fitted resistance Rc of the epithelial barrier, change after stimulation compared to the control: statistically significant (paired t-test) drop
Submerged measurement
  fitted resistance Rc of the epithelial barrier, change after stimulation compared to the control: statistically significant (paired t-test) drop
